Data from patent publication US4470840A, “1-Triacontanol plant growth stimulator formulations” (Biochemical Research Corporation, priority 1981, dated 1984).

Assays:
Assay type in all cases: in vivo
[1] = system: Hybrid Sweet Corn Seedlings (cv. Silver Queen); assay: Greenhouse trial: dry weight and water uptake of seedlings after foliar spraying; details: for % increase (dry weight) / % increase (water uptake) / Dry weight / Water uptake: metal ion 9 mM (none in the last line) with 1-triacontanol 0.1 mg/liter, pH 8 to 10; for Dry weight: control 0.86 g; for Water uptake: control 8.7 g; for Increase in dry weight: 1-triacontanol 0.1 mg/liter, additive 9 mM (none in the last line)
Protocol: (§1) In general, greenhouse trials were conducted as follows: eight to twelve seeds were sown per pot in Peat-Lite® Mix and received an average of 100 ml of water per day. After plants had the third true leaf (average), the various formulations were applied to the leaves as a fine mist at air temperatures listed in Table 1. Temperatures above 20° C., preferably 25°-30° C., are preferred.
(§2) The 1-triacontanol formulation most generally used consisted of a concentrate containing 5 mg of 1-triacontanol dissolved in 1 liter of acetone, with 20 ml of the concentrate being further dissolved to 1 liter with water having a pH between 8 and 10, with over a pH of 11 also being effective. The pH was adjusted with aqueous NaOH and the concentrate added just prior to spraying.
(§3) When other plant growth substances were added to the formulations, these were added either to the concentrate in the polar organic solvent or alternatively in the aqueous solution, depending on the solubility of the plant growth substance. All metal salts were added to the water used to spray the 1-triacontanol formulations. After spraying, preferably about four to nine days or more, plants were harvested with roots, and fresh weights were obtained. Plants were then dried in an oven, preferably at a temperature below 100° C., until constant weight was obtained, and dry weight values were obtained for each plot. Subtraction of the dry weights from the fresh weights gave the water uptake weights (water content) of each plot. The weights of the above mentioned seedlings were compared to the control weights to obtain the percent increases.
(§4) It is particularly advantageous to arrange each of the potted plants in size range categories corresponding to the number of replications used. For example, if five replications are employed, plants are divided into five size categories, normally measured by the height of the plants. Treatments are then assigned randomly within each block (size category). This removes the variation due to plant size for statistical purposes, as is well practiced in the art. The resulting data is analyzed using any appropriate means, which may include the least significant difference method (L.S.D. method), Duncan's multiple range test, as used here (Biometrics, 11: 1 (1955)), or other means.

[2] = system: Hybrid Sweet Corn Seedlings (cv. Silver Queen); assay: Lengths of stems and total plant length of seedlings sprayed Day 7; details: T = 1-triacontanol 0.1 mg/liter; for Length "a" (stem to the first leaf): control 11.5 cm; for Length "b" (total plant length): control 25.0 cm
[3] = system: Field Corn Seedlings (cv. Trojan TXS 94, Pioneer 3780, WF9 X Bear 38); assay: Greenhouse trial: dry weight and water uptake of seedlings after foliar spraying; details: for Dry wt. increase: 1-triacontanol 0.1 mg/liter
Protocol: as §1, §2, §3, §4

[4] = 14-day old seedlings, plant growth substance 0.01 mM, with 1-triacontanol 0.1 mg/liter
[5] = 14-day old seedlings, plant growth substance 0.01 mM, without 1-triacontanol
[6] = plant growth substance 0.01 mM, CaCl2 10 mM, 1-triacontanol 0.5 mg per liter, pH 8
[7] = plant growth substance 0.01 mM, CaCl2 50 mM, 1-triacontanol 0.5 mg per liter, pH 8
[8] = cv. Trojan TXS 94, brassinosteroid 0.4 μM w/o triacontanol, Formulation 7
[9] = cv. Trojan TXS 94, brassinosteroid 0.4 μM with 1-triacontanol 0.5 mg/liter containing 10 mM CaCl2, Formulation 7
[10] = 14-day old seedlings, Formulation 4
[11] = 14-day old seedlings, metal salt 1 mM (1 ea. for the mixture), with 1-triacontanol 0.1 mg/liter, Formulation 4
[12] = plant growth substance 0.001 mM, CaCl2 50 mM, 1-triacontanol 0.5 mg per liter, pH 8
[13] = plant growth substance 0.10 mM, CaCl2 50 mM, 1-triacontanol 0.5 mg per liter, pH 8
[14] = 14-day old seedlings, plant growth substance 0.10 mM, with 1-triacontanol 0.1 mg/liter
[15] = 14-day old seedlings, plant growth substance 0.10 mM, without 1-triacontanol
[16] = plant growth substance 0.04 mM, CaCl2 10 mM, 1-triacontanol 0.5 mg per liter, pH 8
[17] = plant growth substance 0.04 mM, CaCl2 50 mM, 1-triacontanol 0.5 mg per liter, pH 8
[18] = cv. Trojan TXS 94, metal salt 1 mM (1 ea. for the mixture), Formulation 4
[19] = 14-day old seedlings, metal salt 10 mM, with 1-triacontanol 0.1 mg/liter, Formulation 4
[20] = 14-day old seedlings, metal salt 10 mM, without 1-triacontanol, Formulation 4
[21] = 14-day old seedlings, metal salt 5 mM, with 1-triacontanol 0.1 mg/liter, Formulation 4
[22] = 14-day old seedlings, metal salt 5 mM, with 1-triacontanol 0.1 mg/liter, Formulation 11 (chloroform, Tween-20)
[23] = 14-day old seedlings, metal salt 10 mM, with 1-triacontanol 0.1 mg/liter, Formulation 11 (chloroform, Tween-20)

SMILES: c1coc(CNc2ncnc3nc[nH]c23)c1 [Kinetin, 6-furfurylamino purine, reference compound]
- Increases, H2O uptake [1, 4]: +14%
- Increases, dry wt. [1, 4]: -21%
- Increases, H2O uptake [1, 5]: -3%
- Increases, dry wt. [1, 5]: -24%
- Increases, H2O uptake [1, 6]: +13%
- Increases, dry wt. [1, 6]: +3%
- Increases, H2O uptake [1, 7]: -2%
- Increases, dry wt. [1, 7]: +1%
- Increase in length "a" [2]: 0%
- Increase in length "b" [2]: +30%
- Length "a" (stem to the first leaf) [2]: 11.5 cm
- Length "b" (total plant length) [2]: 32.5 cm

SMILES: CC(C)[C@@H](C)[C@H](O)[C@@H](O)[C@@H](C)[C@H]1CC[C@H]2[C@@H]3COC(=O)[C@H]4C[C@H](O)[C@H](O)C[C@]4(C)[C@H]3CC[C@]12C [Brassinosteroid, 2α,3α,22α,23α-tetrahydroxy-24α-methyl-B-hoo-5α-cholestan-6-one, reference compound]
- Increases, dry wt. [3, 8]: +11%
- Increases, water uptake [3, 8]: +8%
- Increases, dry wt. [3, 9]: +19%
- Increases, water uptake [3, 9]: +10%

SMILES: [Zn+2] [Zn^+2]
- % increase (dry weight) [1, 10]: +38%
- % increase (water uptake) [1, 10]: +21%
- Dry weight [1, 10]: 1.17 g
- Water uptake [1, 10]: 10.5 g

SMILES: [Cl][Mn][Cl] [MnCl2]
- Increases, H2O uptake [1, 11]: +29%
- Increases, dry wt. [1, 11]: +9%

SMILES: O=C(O)Cc1c[nH]c2ccccc12 [IAA, indole-3-acetic acid, reference compound]
- Increases, H2O uptake [1, 4]: -5%
- Increases, dry wt. [1, 4]: +2%
- Increases, H2O uptake [1, 5]: -7%
- Increases, dry wt. [1, 5]: +4%
- Increases, H2O uptake [1, 12]: +18%
- Increases, dry wt. [1, 12]: +37%
- Increases, H2O uptake [1, 7]: +25%
- Increases, dry wt. [1, 7]: +56%
- Increases, H2O uptake [1, 13]: +14%
- Increases, dry wt. [1, 13]: +36%
- Increase in length "a" [2]: 0%
- Increase in length "b" [2]: -2%
- Length "a" (stem to the first leaf) [2]: 11.6 cm
- Length "b" (total plant length) [2]: 24.4 cm

SMILES: [Mn+2] [Mn^+2]
- % increase (dry weight) [1, 10]: +31%
- % increase (water uptake) [1, 10]: +25%
- Dry weight [1, 10]: 1.13 g
- Water uptake [1, 10]: 10.9 g

SMILES: O=S(=O)([O-])[O-].O=S(=O)([O-])[O-].[Ce+4] [Ce(SO4)2]
- Increases, H2O uptake [1, 11]: +26%
- Increases, dry wt. [1, 11]: +21%

SMILES: O=C(O)c1cc(I)cc(I)c1I [TIBA, 2,3,5-triiodobenzoic acid, reference compound]
- Increases, H2O uptake [1, 14]: +1%
- Increases, dry wt. [1, 14]: +19%
- Increases, H2O uptake [1, 15]: -12%
- Increases, dry wt. [1, 15]: +10%

SMILES: C=C1C[C@]23C[C@@]1(O)CC[C@H]2[C@@]12C=C[C@H](O)[C@@](C)(C(=O)O1)[C@H]2[C@@H]3C(=O)O [GA3, gibberellic acid, reference compound]
- Increases, H2O uptake [1, 4]: -3%
- Increases, dry wt. [1, 4]: -15%
- Increases, H2O uptake [1, 5]: -6%
- Increases, dry wt. [1, 5]: -24%
- Increases, H2O uptake [1, 16]: +15%
- Increases, dry wt. [1, 16]: +16%
- Increases, H2O uptake [1, 17]: +13%
- Increases, dry wt. [1, 17]: +22%
- Increase in length "a" [2]: -3%
- Increase in length "b" [2]: +6%
- Length "a" (stem to the first leaf) [2]: 11.2 cm
- Length "b" (total plant length) [2]: 26.6 cm

SMILES: O=c1ccc(=O)[nH][nH]1 [MH, maleic hydrazide, reference compound]
- Increases, H2O uptake [1, 14]: -7%
- Increases, dry wt. [1, 14]: +12%
- Increases, H2O uptake [1, 15]: -1%
- Increases, dry wt. [1, 15]: +7%

SMILES: [Mg+2] [Mg^+2]
- % increase (dry weight) [1, 10]: +73%
- % increase (water uptake) [1, 10]: +55%
- Dry weight [1, 10]: 1.49 g
- Water uptake [1, 10]: 13.5 g

SMILES: [Cd+2] [Cd^+2]
- % increase (dry weight) [1, 10]: +58%
- % increase (water uptake) [1, 10]: +14%
- Dry weight [1, 10]: 1.36 g
- Water uptake [1, 10]: 9.9 g

SMILES: [Ca+2] [Ca^+2]
- % increase (dry weight) [1, 10]: +50%
- % increase (water uptake) [1, 10]: +16%
- Dry weight [1, 10]: 1.29 g
- Water uptake [1, 10]: 10.1 g

SMILES: [Sr+2] [Sr^+2]
- % increase (dry weight) [1, 10]: +81%
- % increase (water uptake) [1, 10]: +48%
- Dry weight [1, 10]: 1.56 g
- Water uptake [1, 10]: 12.9 g

SMILES: N.N.N.N.N.N.[Cl-].[Cl-].[Cl-].[Co+3] [Co(NH3)6 Cl3, reference compound]
- Increase in dry weight ([1]; Formulation 4): +13%

SMILES: [Cl][La]([Cl])[Cl] [LaCl3]
- Dry wt. increase [3, 18]: 25-30%
- Increases, dry wt. [1, 19]: +72%
- Increases, H2O uptake [1, 20]: -2%
- Increases, dry wt. [1, 20]: +5%

SMILES: CC(C)CC(N)C(=O)[O-].CC(C)CC(N)C(=O)[O-].[Ca+2] (stereo not shown) [Metal Proteinate, reference compound]
- Increase in dry weight ([1]; Formulation 4): +15%

SMILES: [Ba+2] [Ba^+2]
- % increase (dry weight) [1, 10]: +35%
- % increase (water uptake) [1, 10]: +48%
- Dry weight [1, 10]: 1.16 g
- Water uptake [1, 10]: 12.9 g

SMILES: [Cl-].[Cl-].[Mg+2] [MgCl2]
- Increases, H2O uptake [1, 11]: +20%
- Increases, dry wt. [1, 11]: +21%

SMILES: O=C(O)COc1ccc(Cl)cc1Cl [2,4-D, 2,4-dichlorophenoxyacetic acid, reference compound]
- Increases, H2O uptake [1, 4]: -13%
- Increases, dry wt. [1, 4]: +17%
- Increases, H2O uptake [1, 5]: -9%
- Increases, dry wt. [1, 5]: +10%
- Increase in dry weight over controls ([1]; formulations containing metal ions and synthetic auxin, cv. Silver Queen): 100%

SMILES: [Ca+2].[Cl-].[Cl-] [CaCl2]
- Dry wt. increase ([3]; cv. Pioneer 3780, metal salt 0 mM, Formulation 11): -5%
- Dry wt. increase ([3]; cv. Pioneer 3780, metal salt 1 mM, Formulation 4): +19%
- Dry wt. increase ([3]; cv. Pioneer 3780, metal salt 7.5 mM, Formulation 4, NAA 1.0 μM): +32%
- Dry wt. increase ([3]; cv. Trojan TXS 94, metal salt 0.5 mM, Formulation 4): +22%
- Dry wt. increase [3, 18]: 20-30%
- Dry wt. increase ([3]; cv. Trojan TXS 94, metal salt 1 mM, Formulation 11): -10%
- Dry wt. increase ([3]; cv. Trojan TXS 94, metal salt 1.25 mM, Formulation 4): +30%
- Dry wt. increase ([3]; cv. Trojan TXS 94, metal salt 5 mM, Formulation 7, 2,4,5-T 10.0 μM): +22%
- Dry wt. increase ([3]; cv. Trojan TXS 94, metal salt 5 mM, Formulation 7, 2,4-D 10.0 μM): +23%
- Dry wt. increase ([3]; cv. Trojan TXS 94, metal salt 6 mM, Formulation 7, NAA 1.0 μM): +28%
- Dry wt. increase ([3]; cv. Trojan TXS 94, metal salt 3-5 mM, Formulation 7, IAA 10.0 μM): 20-30%
- Dry wt. increase ([3]; cv. WF9 X Bear 38, metal salt 1 mM, Formulation 4): +8%
- Increase in dry weight ([1]; Formulation 4): +50%
- Increases, H2O uptake [1, 11]: +35%
- Increases, dry wt. [1, 11]: +42%
- Increases, H2O uptake [1, 21]: +21%
- Increases, dry wt. [1, 21]: +50%
- Increases, H2O uptake [1, 22]: +6%
- Increases, dry wt. [1, 22]: +5%
- Increases, H2O uptake [1, 19]: +11%
- Increases, dry wt. [1, 19]: +65%
- Increases, H2O uptake [1, 23]: +9%
- Increases, dry wt. [1, 23]: -5%
- Increases, H2O uptake [1, 20]: -2%
- Increases, dry wt. [1, 20]: +4%

SMILES: [Pb+2] [Pb^+2]
- % increase (dry weight) [1, 10]: +81%
- % increase (water uptake) [1, 10]: +55%
- Dry weight [1, 10]: 1.56 g
- Water uptake [1, 10]: 13.5 g
